A word on the Kd: it is the concentration at which binding is half-saturated. By inhibition is commonly meant the percentage by which the read-out fell short of the control. Usually IC50 stands for the concentration needed to halve the response being measured.

The target of assay [1] is T1, human RORγt ligand binding domain (RORγt LBD) (Homo sapiens, UniProt P51449).
T1 construct: His-tag (N); TurboTEV protease cleavage site (ENLYFQG) (N); made in house; host or cells: E. coli (pHIS1, modified pET vector)
T1 sequence (P51449 258-518): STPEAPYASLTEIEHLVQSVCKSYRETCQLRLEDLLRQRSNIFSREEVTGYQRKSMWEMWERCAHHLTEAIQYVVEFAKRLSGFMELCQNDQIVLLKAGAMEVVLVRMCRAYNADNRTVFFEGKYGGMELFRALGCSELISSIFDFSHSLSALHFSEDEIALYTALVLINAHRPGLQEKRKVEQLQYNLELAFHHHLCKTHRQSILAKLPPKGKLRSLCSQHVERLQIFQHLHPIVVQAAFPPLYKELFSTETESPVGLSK
The experiment in a line: ThermoFluor® Assay (RORγt thermal shift binding). Particulars: 0.065 mg/mL RORγt, 60 µM 1,8-ANS, pH 7.0; estimated from concentration response curves. As for the experimental part: This approach is applicable to a wide variety of systems, and rigorous in theoretical interpretation through quantitation of equilibrium binding constants (KD).
The shift in the melting point described as a ΔTm is proportional to the concentration and affinity of the ligand. The compound potency may be compared as a rank order of either ATm values at a single compound concentration or in terms of KD values, estimated from concentration response curves.
ThermoFluor® experiments were carried out using instruments owned by Janssen Research and Discovery, L.L.C. through its acquisition of 3-Dimensional Pharmaceuticals, Inc. 1,8-ANS (Invitrogen) was used as a fluorescent dye. Protein and compound solutions are dispensed into black 384-well polypropylene PCR microplates (Abgene) and overlayed with silicone oil (1 µL, Fluka, type DC 200) to prevent evaporation.
Bar-coded assay plates are robotically loaded onto a thermostatically controlled PCR-type thermal block and then heated at a typical ramp-rate of 1 °C/minute for all experiments. Fluorescence was measured by continuous illumination with UV light (Hamamatsu LC6) supplied via fiber optic and filtered through a band-pass filter (380-400 nm; >6 OD cutoff). Fluorescence emission of the entire 384-well plate was detected by measuring light intensity using a CCD camera (Sensys, Roper Scientific) filtered to detect 500 ± 25 nm, resulting in simultaneous and independent readings of all 384 wells. Images were collected at each temperature, and the sum of the pixel intensity in a given area of the assay plate was recorded versus temperature. Reference wells contained RORyt without compounds, and the assay conditions were as follows: • 0.065 mg/mL RORγt • 60 µM 1,8-ANS • 100 mM Hepes, pH 7.0 • 10 mM NaCl • 2.5 mM GSH • 0.002% Tween-20
Project compounds were arranged in a pre-dosed mother plate (Greiner Bio-one) wherein compounds are serially diluted in 100% DMSO by 1:2 from a high concentration of 10 mM over 12 columns within a series (column 12 is a reference well containing DMSO, no compound). The compounds were robotically dispensed directly into assay plates (1x = 46 nL) using a Hummingbird capillary liquid handling instrument (Digilab). Following compound dispense, protein and dye in buffer was added to achieve the final assay volume of 3 µL, followed by 1 µL of silicone oil.

The target in assay [2] is T2, full-length human RORγt (Homo sapiens, UniProt P51449).
T2 construct: expressed in transfected cells; host or cells: HEK293T
T2 sequence (P51449 1-497 isoform P51449-2): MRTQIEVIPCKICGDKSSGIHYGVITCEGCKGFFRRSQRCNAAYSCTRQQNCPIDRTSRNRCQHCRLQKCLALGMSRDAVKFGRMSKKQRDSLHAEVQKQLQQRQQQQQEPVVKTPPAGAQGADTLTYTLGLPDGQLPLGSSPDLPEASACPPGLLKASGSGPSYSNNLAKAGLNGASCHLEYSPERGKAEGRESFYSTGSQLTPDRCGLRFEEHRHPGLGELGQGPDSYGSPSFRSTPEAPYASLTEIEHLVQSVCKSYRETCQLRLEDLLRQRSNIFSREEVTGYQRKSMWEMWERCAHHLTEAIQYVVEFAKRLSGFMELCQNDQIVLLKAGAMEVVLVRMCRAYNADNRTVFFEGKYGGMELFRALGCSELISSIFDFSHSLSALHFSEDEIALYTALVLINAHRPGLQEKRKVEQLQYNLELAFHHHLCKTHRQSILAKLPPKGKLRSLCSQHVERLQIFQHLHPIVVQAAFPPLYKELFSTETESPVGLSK
Briefly: RORγt (full-length human) Reporter Assay (GAL4 luciferase, HEK293T cells). The assay is classed as cell-based. As to conditions: for IC50: overnight (16 to 20 hours) incubation, read-out: RORγt (FL) Reporter Assay, IC50. Here is the method: (§1) Compounds were assessed for RORgt functional modulation using either the RORgt ligand binding domain (LBD) reporter assay, or the RORgt full-length (FL) reporter assay.
A reporter assay was used to test functional activity of RORγt modulatory compounds on transcriptional activation driven by full-length human RORγt. Cells used in this assay were transiently co-transfected with three different plasmids, one expressing the GAL4-DNA binding domain (DBD)-RORγt fusion protein under control of a CMV promoter (NH2-Gal4-DBD:RORC-COOH in pCMV-BD, Stratagene #211342), and two reporter plasmids - the firefly luciferase reporter under control of a GAL4 promoter (pFR-Luc 2x GAL4) and Renilla luciferase reporter under control of CMV promoter (pRL-CMV, Promega #E2261). The full-length coding sequence was used for human RORγt, i.e., nucleotides 142-1635 of human RORγt, transcript variant 2, NCBI Accession: NM_001001523.1 (SEQ ID NO:1). HEK293T cells were plated at 35000 per well in 96-well plate in medium of MEM with 8.6% FBS. After 18-22 hours incubation, the transfection was carried out by using a PEI solution with 170.5 ng total DNA/well (50 ng pCMV-BD-ROR plus 20 ng of pFR-Luc reporter and 0.5 ng of pRL-CMV reporter plus 100 ng Carrier DNA (Clontech # 630440) for each well). 4-6 hours after transfection, cells were treated with compounds for overnight in the medium with final concentration of FBS 1.1% and DMSO 0.1%. After overnight (16 to 20 hours) incubation, media were removed and cells were lysed with 20 µL 1x Passive Lysis Buffer (Promega) for 10-15 minutes. Luminescence was measured using a BMG LUMIstar OPTIMA plate reader, after addition of 75 µL/well firefly luciferase buffer, followed by 75 µL/well Renilla luciferase buffer. To calculate the effect of compounds on RORγt activity, firefly values were normalized against values of DMSO only and values of reference compound at saturating concentration, then further normalized against Renilla signals. IC50s were generated by plotting final Renilla normalized data against compound concentration and percent inhibition was calculated against DMSO control.
In general terms: Reporter assays use an easily measured gene product as a stand-in for the process of interest.

Assay [3] has as its target T3, human RORγt LBD (Homo sapiens, UniProt P51449).
T3 construct: expressed in transfected cells; host or cells: HEK293T
T3 sequence (P51449 258-518): T1 sequence (P51449 258-518)
Briefly: RORγt (LBD) Reporter Assay (GAL4 luciferase, HEK293T cells). The assay is classed as cell-based. Particulars: for inhibition at 6 µM: HEK-293T, 6 µM compound; for IC50: compounds for 24 hours. As for the experimental part:
as §1
A reporter assay was used to test functional activity of RORγt modulatory compounds on transcriptional activation driven by the RORγt LBD. Cells used in the assay were co-transfected with two constructs. The first construct, pBIND-RORγt LBD, contained the wild type human RORγt LBD fused to the DNA binding domain of the GAL4 protein. The second construct, pGL4.31 (Promega Cat no. C935A), contained multiple GAL4 responsive DNA elements upstream of firefly luciferase. […] The mutant construct was called pBIND-RORγt-AF2.
The pBIND vector contains the GAL4 DNA Binding Domain (GAL4 DBD) and the renilla luciferase gene under control of the SV40 promoter. Renilla luciferase expression serves as a control for transfection efficiency and cell viability.
The reporter assay was performed by transiently transfecting HEK293T cells with 5 µg of pBIND-RORγt LBD or pBIND-RORγt LBD-AF2 and 5 µg pGL4.31 (Promega Cat no. C935A) using Fugene 6 (Invitrogen Cat no. E2691) at a 1:6 ratio of DNA: Fugene 6 in a T-75 flask in which cells were at least 80% confluent. Twenty four hours after bulk transfection, cells were plated into 96-well plates at 50,000 cells/well in phenol-red free DMEM containing 5% Lipid Reduced FCS and Pen/Strep. Six hours after plating, cells were treated with compounds for 24 hours. Media was removed and cells were lysed with 50 µL 1x Glo Lysis Buffer (Promega). Dual Glo Luciferase Reagent (50 µL/well) was then added and firefly luciferase luminescence was read on an Envision after a ten minute incubation. Finally, Stop and Glo reagent (50 µL/well) was added and renilla luciferase luminescence was read on an Envision after a ten minute incubation. To calculate the effect of compounds on RORγt activity, the ratio of firefly to renilla luciferase was determined and plotted against compound concentration. Agonist compounds increase RORγt-driven luciferase expression, and antagonist or inverse agonist compounds decrease luciferase expression.

Structures can show the parent of a compound that is named as a salt.

Take `COc1nc2ccc(C(O)c3c(C)noc3C)cc2c(Cl)c1Cc1ccc(C(F)(F)F)cc1` (single isomer, unassigned) [Example 20b, (4-Chloro-2-methoxy-3-(4-(trifluoromethyl)benzyl)quinolin-6-yl)(3,5-dimethylisoxazol-4-yl)methanol]: the Kd in assay [1] was 0.29 µM. The inhibition at 2 µM in assay [2] (HEK-293T, 2 µM compound, read-out: RORγt (FL) Reporter Assay, % inhibition @ 2 µM) came out at 84%. Also, the IC50 in assay [2] is 0.3 µM.
As to `COc1nc2ccc(C(O)c3c(C)noc3C)cc2c(Cl)c1Cc1ccc(C(F)(F)F)cc1` (single isomer, unassigned) [Example 20c, (4-Chloro-2-methoxy-3-(4-(trifluoromethyl)benzyl)quinolin-6-yl)(3,5-dimethylisoxazol-4-yl)methanol], the equilibrium dissociation constant (Kd) in assay [1] was 0.022 µM. In addition, in assay [2] (2 µM compound, 2 µM), the “RORγt (FL) Reporter Assay, % inhibition @ 2 µM” value was found to be 99%. In assay [2], the IC50 amounted to 0.023 µM.
In the case of `COc1nc2ccc(C(O)c3oc(C)nc3C)cc2c(Cl)c1Cc1ccc(C(F)(F)F)cc1` (stereo not drawn) [Example 19, (4-Chloro-2-methoxy-3-(4-(trifluoromethyl)benzyl)quinolin-6-yl)(2,4-dimethyloxazol-5-yl)methanol], the equilibrium dissociation constant (Kd) in assay [1] was 0.35 µM. In assay [3], this compound yielded an inhibition at 6 µM of 79% and an IC50 of 0.24 µM.
As for `Cc1ncc(C(O)c2ccc3nc(N4CCC4)c(Cc4ccc(-n5cccn5)cc4)c(Cl)c3c2)n1C` (stereo not drawn) [Example 21a, {2-Azetidin-1-yl-4-chloro-3-[4-(1H-pyrazol-1-yl)benzyl]quinolin-6-yl)(1,2-dimethyl-1H-imidazol-5-yl)methanol], in assay [1], the Kd is 0.2 µM. In assay [3], this compound yielded an inhibition at 6 µM of 91% and a half-maximal inhibitory concentration (IC50) of 0.38 µM.
Taken in the same sequence, the figures for `Cc1ncc(C(O)c2ccc3nc(N4CCC4)c(Cc4ccc(C(F)(F)F)cc4)c(Cl)c3c2)n1C` (stereo not drawn) [Example 22a, {2-Azetidin-1-yl-4-chloro-3-[4-(trifluoromethyl)benzyl]quinolin-6-yl}(1,2-dimethyl-1H-imidazol-5-yl)methanol] were 0.081 µM, 92% and 0.25 µM.
As for `Cc1ccc(C(O)c2ccc3nc(N4CCC4)c(Cc4ccc(C(F)(F)F)cc4)c(Cl)c3c2)c(C)n1` (stereo not drawn) [Example 23a, {2-Azetidin-1-yl-4-chloro-3-[4-(trifluoromethyl)benzyl]quinolin-6-yl}(2,6-dimethylpyridin-3-yl)methanol], the dissociation constant (Kd) in assay [1] is 0.14 µM. In assay [3], this compound had an inhibition at 6 µM of 95% and an IC50 of 0.18 µM.
Taken in the same sequence, the figures for `OC(c1ccncc1)c1ccc2nc(Cl)c(Cc3ccccc3)c(Cl)c2c1` (stereo not drawn) [Example 24, (3-Benzyl-2,4-dichloroquinolin-6-yl)(pyridin-4-yl)methanole•TFA] were 0.23 µM, 41% and greater than 6 µM.
Taken in the same sequence, the figures for `OC(c1ccncc1)c1ccc2nc(Cl)c(-c3ccccc3)c(Cl)c2c1` (stereo not drawn) [Example 25, (2,4-Dichloro-3-phenylquinolin-6-yl)(pyridin-4-yl)methanol•TFA] were 1.2 µM, 47% and greater than 6 µM.
Taken in the same sequence, the figures for `OC(c1ccc(Cl)cc1)c1ccc2nc(Cl)c(-c3ccccc3Cl)c(Cl)c2c1` (stereo not drawn) [Example 26, (4-Chlorophenyl)(2,4-dichloro-3-(2-chlorophenyl)quinolin-6-yl)methanol] were 1.4 µM, 68% and roughly 3 µM.
As to `COc1nc2ccc(C(O)C3CN(C(=O)OC(C)(C)C)C3)cc2c(Cl)c1Cc1ccc(C(F)(F)F)cc1` (stereo not drawn) [Example 32, tert-Butyl-3-((4-chloro-2-methoxy-3-(4-(trifluoromethyl)benzyl)quinolin-6-yl)(hydroxy)methyl)azetidine-1-carboxylate], in assay [1], the Kd was 16 µM. In assay [3], this compound registered an inhibition at 6 µM of 84% and a half-inhibitory concentration (IC50) of 2.2 µM.
Taken in the same sequence, the figures for `OC(c1ccc(Cl)cc1)c1ccc2nc(Cl)c(-c3ccccc3)c(Cl)c2c1` (stereo not drawn) [Example 35, (4-Chlorophenyl)(2,4-dichloro-3-phenylquinolin-6-yl)methanol] were 25 µM, 45% and greater than 6 µM.

Source of the values: patent EP3057949B1, “SECONDARY ALCOHOL QUINOLINYL MODULATORS OF ROR GAMMA T” (Janssen Pharmaceutica NV, priority 2013, dated 2015).
